# Experimental data as given in PubChem BioAssay AID330 (DTP/NCI, 2004).
# Values joined by “and” are separate entries in the source; they are usually repeats but may differ in a detail not shown here. Identical values can stand only once. Toxic doses and inconclusive results are not listed.
# Test system: P388 leukemia ip, CD2F1 mice, survival T/C
# Experiment: NCI In Vivo Anticancer Drug Screen. Data for tumor model P388 Leukemia (intraperitoneal) in CD2F1 (CDF1) mice
# Conditions: endpoint: median survival time, higher = longer survival
# Outline: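 Mice carrying the transplanted tumor received test compound or vehicle. Survival was recorded in each group, and the value is the treated-group measurement divided by that of the vehicle-treated control group.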
structure (smiles),measurement,setting,value
COc1cc2c[n+](C)c3c4cc5c(cc4ccc3c2cc1OC)OCO5,T/C,"dose: 0.5 mg/kg/injection, schedule: Q01DX005 (ip), vehicle: saline",106 % of control
same,T/C,"dose: 1.0 mg/kg/injection, schedule: Q01DX005 (ip), vehicle: saline",118 % of control
same,T/C,"dose: 1.25 mg/kg/injection, schedule: Q01DX009 (ip), vehicle: DMSO",124 % of control
same,T/C,"dose: 2.0 mg/kg/injection, schedule: Q01DX005 (ip), vehicle: saline",115 % of control
same,T/C,"dose: 2.0 mg/kg/injection, schedule: Q03HX008 (ip), vehicle: water",109 % of control
same,T/C,"dose: 2.0 mg/kg/injection, schedule: Q03HX016 (ip), vehicle: water",121 % of control
same,T/C,"dose: 2.0 mg/kg/injection, schedule: Q03HX024 (ip), vehicle: saline with Tween-80",150 % of control
same,T/C,"dose: 4.0 mg/kg/injection, schedule: Q01DX009 (ip), vehicle: saline",152 % of control
same,T/C,"dose: 4.0 mg/kg/injection, schedule: Q01DX009 (sc), vehicle: water",97 % of control
same,T/C,"dose: 4.0 mg/kg/injection, schedule: Q03HX008 (ip), vehicle: water",114 % of control
same,T/C,"dose: 4.0 mg/kg/injection, schedule: Q03HX016 (ip), vehicle: water",119 % of control
same,T/C,"dose: 5.0 mg/kg/injection, schedule: Q01DX009 (ip), vehicle: DMSO",153 % of control
same,T/C,"dose: 8.0 mg/kg/injection, schedule: Q01DX009 (ip), vehicle: saline with Tween-80",166 % of control
same,T/C,"dose: 8.0 mg/kg/injection, schedule: Q01DX009 (ip), vehicle: saline",152 % of control
same,T/C,"dose: 8.0 mg/kg/injection, schedule: Q01DX009 (oral), vehicle: water",102 % of control
same,T/C,"dose: 8.0 mg/kg/injection, schedule: Q01DX009 (sc), vehicle: saline with Tween-80",96 % of control
same,T/C,"dose: 8.0 mg/kg/injection, schedule: Q01DX009 (sc), vehicle: water",97 % of control
same,T/C,"dose: 8.0 mg/kg/injection, schedule: Q03HX008 (ip), vehicle: water",87 % of control
same,T/C,"dose: 8.0 mg/kg/injection, schedule: Q03HX016 (ip), vehicle: saline with Tween-80",153 % of control
same,T/C,"dose: 8.0 mg/kg/injection, schedule: Q03HX016 (ip), vehicle: water",92 % of control
same,T/C,"dose: 8.0 mg/kg/injection, schedule: Q03HX024 (ip), vehicle: saline with Tween-80",165 % of control
same,T/C,"dose: 8.0 mg/kg/injection, schedule: Q04DX003 (ip), vehicle: water",113 % of control
same,T/C,"dose: 10.0 mg/kg/injection, schedule: Q01DX009 (ip), vehicle: DMSO",153 % of control and 155 % of control
same,T/C,"dose: 16.0 mg/kg/injection, schedule: Q01DX001 (ip), vehicle: water",106 % of control
same,T/C,"dose: 16.0 mg/kg/injection, schedule: Q01DX001 (oral), vehicle: water",103 % of control
same,T/C,"dose: 16.0 mg/kg/injection, schedule: Q01DX001 (sc), vehicle: water",98 % of control
same,T/C,"dose: 16.0 mg/kg/injection, schedule: Q01DX009 (ip), vehicle: saline with Tween-80",157 % of control
same,T/C,"dose: 16.0 mg/kg/injection, schedule: Q01DX009 (ip), vehicle: saline",171 % of control
same,T/C,"dose: 16.0 mg/kg/injection, schedule: Q01DX009 (oral), vehicle: water",94 % of control
same,T/C,"dose: 16.0 mg/kg/injection, schedule: Q01DX009 (sc), vehicle: saline with Tween-80",97 % of control
same,T/C,"dose: 16.0 mg/kg/injection, schedule: Q03HX008 (ip), vehicle: saline with Tween-80",167 % of control
same,T/C,"dose: 16.0 mg/kg/injection, schedule: Q04DX003 (ip), vehicle: water",119 % of control
same,T/C,"dose: 16.0 mg/kg/injection, schedule: Q08DX002 (ip), vehicle: water",112 % of control
same,T/C,"dose: 20.0 mg/kg/injection, schedule: Q01DX009 (ip), vehicle: DMSO",155 % of control and 163 % of control and 190 % of control
same,T/C,"dose: 20.0 mg/kg/injection, schedule: Q01DX009 (ip), vehicle: saline",191 % of control
same,T/C,"dose: 25.0 mg/kg/injection, schedule: Q01DX009 (ip), vehicle: saline with Tween-80",114 % of control
same,T/C,"dose: 25.0 mg/kg/injection, schedule: Q01DX009 (ip), vehicle: water",100 % of control and 87 % of control
same,T/C,"dose: 32.0 mg/kg/injection, schedule: Q01DX001 (ip), vehicle: water",102 % of control
same,T/C,"dose: 32.0 mg/kg/injection, schedule: Q01DX001 (oral), vehicle: water",103 % of control
same,T/C,"dose: 32.0 mg/kg/injection, schedule: Q01DX001 (sc), vehicle: saline with Tween-80",100 % of control
same,T/C,"dose: 32.0 mg/kg/injection, schedule: Q01DX001 (sc), vehicle: water",101 % of control
same,T/C,"dose: 32.0 mg/kg/injection, schedule: Q01DX005 (ip), vehicle: saline",168 % of control
same,T/C,"dose: 32.0 mg/kg/injection, schedule: Q01DX009 (ip), vehicle: saline with Tween-80",100 % of control
same,T/C,"dose: 32.0 mg/kg/injection, schedule: Q01DX009 (ip), vehicle: water",185 % of control
same,T/C,"dose: 32.0 mg/kg/injection, schedule: Q01DX009 (oral), vehicle: saline with Tween-80",107 % of control
same,T/C,"dose: 32.0 mg/kg/injection, schedule: Q01DX009 (oral), vehicle: water",93 % of control
same,T/C,"dose: 32.0 mg/kg/injection, schedule: Q01DX009 (sc), vehicle: saline with Tween-80",92 % of control
same,T/C,"dose: 32.0 mg/kg/injection, schedule: Q03HX008 (ip), vehicle: saline with Tween-80",161 % of control
same,T/C,"dose: 32.0 mg/kg/injection, schedule: Q03HX016 (ip), vehicle: saline with Tween-80",100 % of control
same,T/C,"dose: 32.0 mg/kg/injection, schedule: Q04DX003 (ip), vehicle: other",154 % of control
same,T/C,"dose: 32.0 mg/kg/injection, schedule: Q04DX003 (ip), vehicle: water",119 % of control
same,T/C,"dose: 32.0 mg/kg/injection, schedule: Q08DX002 (ip), vehicle: water",113 % of control
same,T/C,"dose: 40.0 mg/kg/injection, schedule: Q01DX009 (ip), vehicle: saline",105 % of control and 96 % of control
same,T/C,"dose: 64.0 mg/kg/injection, schedule: Q01DX001 (ip), vehicle: water",117 % of control
same,T/C,"dose: 64.0 mg/kg/injection, schedule: Q01DX001 (oral), vehicle: water",102 % of control
same,T/C,"dose: 64.0 mg/kg/injection, schedule: Q01DX001 (sc), vehicle: saline with Tween-80",98 % of control
same,T/C,"dose: 64.0 mg/kg/injection, schedule: Q01DX001 (sc), vehicle: water",95 % of control
same,T/C,"dose: 64.0 mg/kg/injection, schedule: Q01DX009 (oral), vehicle: saline with Tween-80",100 % of control
same,T/C,"dose: 64.0 mg/kg/injection, schedule: Q01DX009 (oral), vehicle: water",101 % of control
same,T/C,"dose: 64.0 mg/kg/injection, schedule: Q01DX009 (sc), vehicle: saline with Tween-80",87 % of control
same,T/C,"dose: 64.0 mg/kg/injection, schedule: Q04DX003 (ip), vehicle: other",150 % of control and 181 % of control
same,T/C,"dose: 64.0 mg/kg/injection, schedule: Q04DX003 (ip), vehicle: saline with Tween-80",151 % of control
same,T/C,"dose: 64.0 mg/kg/injection, schedule: Q08DX002 (ip), vehicle: water",115 % of control
same,T/C,"dose: 100.0 mg/kg/injection, schedule: Q04DX002 (ip), vehicle: Klucel (hydroxypropylcellulose) (HPC)",154 % of control
same,T/C,"dose: 120.0 mg/kg/injection, schedule: Q04DX003 (ip), vehicle: distilled water + Tween-80",99 % of control
same,T/C,"dose: 128.0 mg/kg/injection, schedule: Q01DX001 (oral), vehicle: water",95 % of control
same,T/C,"dose: 128.0 mg/kg/injection, schedule: Q01DX001 (sc), vehicle: saline with Tween-80",97 % of control
same,T/C,"dose: 128.0 mg/kg/injection, schedule: Q01DX009 (oral), vehicle: saline with Tween-80",100 % of control
same,T/C,"dose: 128.0 mg/kg/injection, schedule: Q01DX009 (oral), vehicle: water",103 % of control
same,T/C,"dose: 128.0 mg/kg/injection, schedule: Q01DX009 (sc), vehicle: saline with Tween-80",88 % of control
same,T/C,"dose: 128.0 mg/kg/injection, schedule: Q04DX003 (ip), vehicle: other",107 % of control
same,T/C,"dose: 128.0 mg/kg/injection, schedule: Q04DX003 (ip), vehicle: saline with Tween-80",166 % of control
same,T/C,"dose: 128.0 mg/kg/injection, schedule: Q08DX002 (ip), vehicle: saline with Tween-80",155 % of control
same,T/C,"dose: 200.0 mg/kg/injection, schedule: Q04DX002 (ip), vehicle: Klucel (hydroxypropylcellulose) (HPC)",105 % of control and 122 % of control
same,T/C,"dose: 256.0 mg/kg/injection, schedule: Q01DX001 (ip), vehicle: saline with Tween-80",161 % of control
same,T/C,"dose: 256.0 mg/kg/injection, schedule: Q01DX001 (oral), vehicle: saline with Tween-80",104 % of control
same,T/C,"dose: 256.0 mg/kg/injection, schedule: Q01DX001 (sc), vehicle: saline with Tween-80",106 % of control
same,T/C,"dose: 256.0 mg/kg/injection, schedule: Q01DX009 (oral), vehicle: saline with Tween-80",100 % of control
same,T/C,"dose: 256.0 mg/kg/injection, schedule: Q08DX002 (ip), vehicle: saline with Tween-80",160 % of control
same,T/C,"dose: 400.0 mg/kg/injection, schedule: Q04DX002 (ip), vehicle: Klucel (hydroxypropylcellulose) (HPC)",87 % of control
same,T/C,"dose: 512.0 mg/kg/injection, schedule: Q01DX001 (oral), vehicle: saline with Tween-80",106 % of control
same,T/C,"dose: 512.0 mg/kg/injection, schedule: Q01DX001 (sc), vehicle: saline with Tween-80",97 % of control
same,T/C,"dose: 512.0 mg/kg/injection, schedule: Q01DX009 (oral), vehicle: saline with Tween-80",97 % of control
same,T/C,"dose: 1024.0 mg/kg/injection, schedule: Q01DX001 (oral), vehicle: saline with Tween-80",100 % of control
same,T/C,"dose: 2048.0 mg/kg/injection, schedule: Q01DX001 (oral), vehicle: saline with Tween-80",102 % of control
